Tests used:
Type in all cases: physicochemical
[1] = accelerated stability study (75% relative humidity, 40° C., one week); details: one week at 75% relative humidity
Description: An accelerated stability study was conducted on the crystalline solid. Approximately 10 mg of crystalline solid was placed into a 4 mL vial, and the vial was covered with a Kimwipe. The vial was stored for one week inside a stability chamber producing a relative humidity of 75% at 40° C.

[2] = hygroscicity by dynamic vapor sorption; details: transitioned from 5% to 95% relative humidity
Description: Dynamic vapor sorption was performed using a Q5000SA. The sample (5-15 mg) was loaded into a metallic quartz sample pan, suspended from a microbalance, and exposed to a humidified stream of nitrogen gas. Weight changes were relative to a matching empty reference pan opposite the sample, suspended from the microbalance. The sample was held for a minimum of 10 min at each humidity level and only progressed to the next humidity level if there was <0.002% change in weight between measurements (interval: 5 s) or 45 min had elapsed (for 5-65% RH) or 2 hours had elapsed (for 80 and 95% RH). The following program was used: • 1. Equilibration at 50% RH • 2. 50% to 5% (50%, 35%, 20%, and 5%) • 3. 5% to 95% (5%, 20%, 35%, 50%, 65%, 80%, and 95%) • 4. 95% to 5% (95%, 80%, 65%, 50%, 35%, 20%, and 5%) • 5. 5% to 50% (5%, 20%, 35%, and 50%).
The crystalline solid was analyzed for hygroscopicity.

[3] = water solubility of the crystalline solid; details: pH 7.0 (phosphate buffer), 37° C., after 30 minutes

Substance	change of crystalline form by XRPD after the stability study [1]	HPLC purity after the stability study ([1]; 99.59 area percent before the study) [area percent]	increase in weight by dynamic vapor sorption [2] [%]	water solubility (mg/mL of the free base (S)-1-((R)-3-amino-1-(...)piperidin-3-yl)-2,2-difluoroethan-1-ol) [3] [mg/mL]
Maleic Acid Salt of (S)-1-((R)-3-amino-1-(4-((6-amino-9H-purin-9-yl)methyl)-6-(2,5-difluoro-4-methoxyphenyl)pyridin-3-yl)piperidin-3-yl)-2,2-difluoroethan-1-ol [Example 1]	no change of the crystalline form	99.56	0.507	
p-Toluenesulfonic Acid Salt of (S)-1-((R)-3-amino-1-(4-((6-amino-9H-purin-9-yl)methyl)-6-(2,5-difluoro-4-methoxyphenyl)pyridin-3-yl)piperidin-3-yl)-2,2-difluoroethan-1-ol [Example 3]				1.61

Source: patent publication US20260152502A1, “PIPERIDINYL-METHYL-PURINE AMINE SALTS, CRYSTALLINE FORMS, AND THEIR USE IN TREATING MEDICAL DISEASES AND CONDITIONS” (K36 THERAPEUTICS, INC., priority 2022, published 2026)
